Measured values reported in patent publication US4104383A, “Derivatives of phenylpropenylamine” (C M Industries, priority 1973, dated 1978).
Converted amounts (≈) assume the structure as drawn.

System: mouse
Experiment: Activity test (spontaneous motility, photoelectric cell cage)
Format: in vivo
Details: ip, I.P., read-out: Activity, median effective dose
Method: (Boissier J. R. and Simon P. "Archives Internationales de Pharmacodynamie",1965, 158, 212).
A mouse was placed in a Plexiglass cage crossed by a plurality of beams of light acting on photoelectric cells. When the mouse moved and thereby interrupted one of the beams, this caused an electrical pulse which was registered on a counter. The measurements were carried out on batches of six treated animals and six control animals for a period of 20 minutes.
(§1) The results obtained from the tests described above are summarized in Table II; the figures given in this Table show the value of the median effective dose for each test. The method of administration is indicated by "I.V." for intravenous administration, "I.P." for intraperitoneal administration and "P.O." for oral administration.

Structure (SMILES)	ED50 [mg/kg]
CCN(CC)CC=Cc1ccc(C2CCCCC2)c(F)c1 [Compound 31030, 3-fluoro-4-cyclohexyl-1-(3-diethylamino-propen-1-yl)-benzene]	100
CCN(CC)CC=Cc1ccc(C2CCCCC2)cc1 [31023 CB, 4-cyclohexyl-1-(3-diethylamino-propen-1-yl)-benzene]	25
CCN(CC)CC=Cc1ccc(C2CCCCC2)c(Cl)c1 [933 CB, 3-chloro-4-cyclohexyl-1-(3-diethylamino-propen-1-yl)-benzene]	25
CN(C)CCCc1ccc(C2CCCCC2)c(Cl)c1 [31012 CB, 3-Chloro-4-cyclohexyl-1-(3-dimethylamino-propyl)-benzene]	50
CCN(CC)CCCc1ccc(-c2ccccc2)cc1 [31001 CB, 4-(3-diethylamino-propyl)-biphenyl]	50

Same assay, conditions: po, P.O., read-out: Activity, median effective dose

Structure (SMILES)	ED50 [mg/kg]
CCN(CC)CC=Cc1ccc(C2CCCCC2)c(Cl)c1 [933 CB, 3-chloro-4-cyclohexyl-1-(3-diethylamino-propen-1-yl)-benzene]	100

System: central nervous system
Experiment: Traction test
Format: in vivo
Details: ip; mouse, I.P.; read-out: Traction, median effective dose
Excerpt: (Courvoisier S., Ducrot R. and Julou L. "Psychotropic Drugs", Elsevier, 1957, p.373)
In this test, a mouse was hung by its front legs on a stretched wire. The animal will normally recover by itself, by gripping with its rear legs within 5 seconds.
as §1

Structure (SMILES)	ED50 [mg/kg]
CCN(CC)CC=Cc1ccc(C2CCCCC2)c(F)c1 [Compound 31030, 3-fluoro-4-cyclohexyl-1-(3-diethylamino-propen-1-yl)-benzene]	50
CCN(CC)CC=Cc1ccc(C2CCCCC2)cc1 [31023 CB, 4-cyclohexyl-1-(3-diethylamino-propen-1-yl)-benzene]	25
CCN(CC)CC=Cc1ccc(C2CCCCC2)c(Cl)c1 [933 CB, 3-chloro-4-cyclohexyl-1-(3-diethylamino-propen-1-yl)-benzene]	50
CN(C)CCCc1ccc(C2CCCCC2)c(Cl)c1 [31012 CB, 3-Chloro-4-cyclohexyl-1-(3-dimethylamino-propyl)-benzene]	100
CCN(CC)CCCc1ccc(-c2ccccc2)cc1 [31001 CB, 4-(3-diethylamino-propyl)-biphenyl]	100

Same assay, conditions: po; mouse, P.O.; read-out: Traction, median effective dose

Structure (SMILES)	ED50 [mg/kg]
CCN(CC)CC=Cc1ccc(C2CCCCC2)c(Cl)c1 [933 CB, 3-chloro-4-cyclohexyl-1-(3-diethylamino-propen-1-yl)-benzene]	100

System: central nervous system
Experiment: Balancing test (rotating shaft)
Format: in vivo
Details: ip; mouse, I.P.; read-out: Balancing, median effective dose
Method: (Boissier J. R., Dumont C. and Ratouis R. "Therapie", 1960, 15, 1170)
In this test, mice were placed for 1 minute on a horizontal wooden shaft which rotated steadily at 12 r.p.m. The mice will normally counteract this movement using positional and balancing reflexes; if, however, the central nervous system is affected, these reflexes are disturbed and a certain number of animals fall off.
as §1

Structure (SMILES)	ED50 [mg/kg]
CCN(CC)CC=Cc1ccc(C2CCCCC2)c(F)c1 [Compound 31030, 3-fluoro-4-cyclohexyl-1-(3-diethylamino-propen-1-yl)-benzene]	25
CCN(CC)CC=Cc1ccc(C2CCCCC2)cc1 [31023 CB, 4-cyclohexyl-1-(3-diethylamino-propen-1-yl)-benzene]	30
CCN(CC)CC=Cc1ccc(C2CCCCC2)c(Cl)c1 [933 CB, 3-chloro-4-cyclohexyl-1-(3-diethylamino-propen-1-yl)-benzene]	30
CN(C)CCCc1ccc(C2CCCCC2)c(Cl)c1 [31012 CB, 3-Chloro-4-cyclohexyl-1-(3-dimethylamino-propyl)-benzene]	100
CCN(CC)CCCc1ccc(-c2ccccc2)cc1 [31001 CB, 4-(3-diethylamino-propyl)-biphenyl]	100

Same assay, conditions: po; mouse, P.O.; read-out: Balancing, median effective dose

Structure (SMILES)	ED50 [mg/kg]
CCN(CC)CC=Cc1ccc(C2CCCCC2)c(Cl)c1 [933 CB, 3-chloro-4-cyclohexyl-1-(3-diethylamino-propen-1-yl)-benzene]	50

System: mouse
Experiment: Exploration test (plank with holes, anxiolytic activity)
Format: in vivo
Details: ip, I.P., read-out: Exploration, median effective dose
Method: (Boissier J. R. and Simon P. "Archives Internationales de Pharmacodynamie",1964, 147, 372).
This test, using a plank with holes in it, makes it possible to measure objectively the anxiolytic activity of a compound by noting the decrease in the number of holes explored within a given time by a treated mouse in comparison with a control mouse. The animals are used in batches of 10 and are allowed 5 minutes for exploration.
as §1

Structure (SMILES)	ED50 [mg/kg]
CCN(CC)CC=Cc1ccc(C2CCCCC2)c(F)c1 [Compound 31030, 3-fluoro-4-cyclohexyl-1-(3-diethylamino-propen-1-yl)-benzene]	≥ 50
CCN(CC)CC=Cc1ccc(C2CCCCC2)c(Cl)c1 [933 CB, 3-chloro-4-cyclohexyl-1-(3-diethylamino-propen-1-yl)-benzene]	25
CN(C)CCCc1ccc(C2CCCCC2)c(Cl)c1 [31012 CB, 3-Chloro-4-cyclohexyl-1-(3-dimethylamino-propyl)-benzene]	50

Same assay, conditions: po, P.O., read-out: Exploration, median effective dose

Structure (SMILES)	ED50 [mg/kg]
CCN(CC)CC=Cc1ccc(C2CCCCC2)c(Cl)c1 [933 CB, 3-chloro-4-cyclohexyl-1-(3-diethylamino-propen-1-yl)-benzene]	25

System: mouse
Experiment: Reserpine test (reserpine-induced depression)
Format: in vivo
Details: ip, I.P., reserpine 5 mg/kg subcutaneously, read-out: Reserpine, median effective dose
Method: (Rubin B., Malone M. H., Waugh M. H. and Burke J. C., "Journal of Pharmacology and Experimental Therapeutics", 1957, 120, 125)
Reserpine, administered subcutaneously to a mouse in a dose of 5 mg/kg body weight, causes symptoms of severe depression, with absolute fixity, ptosis of the eyelids, hypothermia and catatonia; the simultaneous administration of a substance having anti-depressive properties leads to the progressive total or partial disappearance of this depressed state.
as §1

Structure (SMILES)	ED50 [mg/kg]
CCN(CC)CC=Cc1ccc(C2CCCCC2)c(Cl)c1 [933 CB, 3-chloro-4-cyclohexyl-1-(3-diethylamino-propen-1-yl)-benzene]	75

Same assay, conditions: po, P.O., reserpine 5 mg/kg subcutaneously, read-out: Reserpine, median effective dose

Structure (SMILES)	ED50 [mg/kg]
CCN(CC)CC=Cc1ccc(C2CCCCC2)c(Cl)c1 [933 CB, 3-chloro-4-cyclohexyl-1-(3-diethylamino-propen-1-yl)-benzene]	100

System: dorsal hippocampus
Experiment: Electroencephalographic study, electrical stimulation of the dorsal hippocampus
Format: in vivo, rabbit
Details: conscious rabbits, intravenous; 6 volts, 30 cycles per second, 5 seconds
Excerpt: Electroencephalographic study
(Schmitt H. and Schmitt H., "Therapie", 1966, 3, 675-684)
Electrical stimulation of the dorsal hippocampus (6 volts; 30 cycles per second; 5 seconds, extent: 1.5 milliseconds) causes electrical discharges in the rabbit which continue for several seconds after cessation of electrical stimulation. These discharges last from 15 to 19 seconds in a normal animal. When the rabbit is under the influence of an antidepressant drug, these discharges last much longer. The experiment was carried out on batches of six conscious rabbits implanted by the technique of Monnier M. and Gangloff H. ("Atlas of Stereotaxic brain research on the conscious rabbit", Elsevier 1961), the products being administered intraveneously. The discharges were increased by 60% when the rabbits were treated with compound 933 CB and by 20 % when the rabbits were treated with compound 994 CB.

Structure (SMILES)	Increase of hippocampal discharges [%]
CCN(CC)CC=Cc1ccc(C2CCCCC2)c(Cl)c1 [933 CB, 3-chloro-4-cyclohexyl-1-(3-diethylamino-propen-1-yl)-benzene]	60

System: isolated rat duodenum
Experiment: Antispasmodic activity, barium chloride-induced spasms of isolated rat duodenum
Details: tyrode bath 37° C, barium chloride 100 μg/liter, compound added 3 minutes before, read-out: 50% effective concentration
Method: The antispasmodic activity of the compounds of the invention was also studied on the isolated rat duodenum, kept alive in an aerated tyrode bath at 37° C. Spasms were induced by the administration of barium chloride in an amount of 100 μg/liter. The compounds of the invention were added, at various concentrations, to the tyrode bath 3 minutes before the addition of the spasmogenic agent and the concentration determined of each which reduced by 50% the extent of the contraction caused by this agent.

Structure (SMILES)	EC50 [ng/mL]
CCN(CC)CC=Cc1ccc(C2CCCCC2)c(Cl)c1 [933 CB, 3-chloro-4-cyclohexyl-1-(3-diethylamino-propen-1-yl)-benzene]	0.6 to 1 (≈ 1.96 to 3.27 nM)
CCN(CC)CCCc1ccc(-c2ccccc2)cc1 [31001 CB, 4-(3-diethylamino-propyl)-biphenyl]	1 (≈ 3.74 nM)

System: not listed separately
Experiment: Toxicity, LD50 in mice
Details: mouse, in vivo, ip, I.P., read-out: LD50 I.P.
Excerpt: The toxicity of the compounds of the invention is generally low, as may be seen from Table IV, which gives the LD50 in mg/kg in mice for some of the compounds of the invention.

Structure (SMILES)	LD50 [mg/kg]
CCN(CC)CC=Cc1ccc(C2CCCCC2)c(Cl)c1 [933 CB, 3-chloro-4-cyclohexyl-1-(3-diethylamino-propen-1-yl)-benzene]	125
CN(C)CCCc1ccc(C2CCCCC2)c(Cl)c1 [31012 CB, 3-Chloro-4-cyclohexyl-1-(3-dimethylamino-propyl)-benzene]	250 to 300

Same assay, conditions: mouse, in vivo, po, orally, read-out: LD50 orally

Structure (SMILES)	LD50 [mg/kg]
CCN(CC)CC=Cc1ccc(C2CCCCC2)c(Cl)c1 [933 CB, 3-chloro-4-cyclohexyl-1-(3-diethylamino-propen-1-yl)-benzene]	> 1080
CN(C)CCCc1ccc(C2CCCCC2)c(Cl)c1 [31012 CB, 3-Chloro-4-cyclohexyl-1-(3-dimethylamino-propyl)-benzene]	> 750

System: severely depressed hospital patients
Experiment: Clinical evaluation in severely depressed hospital patients
Format: in vivo, human
Details: 30 severely depressed hospital patients, 20 to 200 mg daily
Method: A clinical evaluation of 933 CB was carried out using a sample of […] severely depressed hospital patients who were considering suicide or in some cases had attempted it. The sample contained 13 cases of nervous depression, 10 cases of reactional depression, seven cases of psychotic depression and three cases of severe melancholia. A clear favourable action on the depressive […] occurred in 21 of the patients. Several cases where a favourable response was noted had previously been treated with tricyclic antidepressants without success. […] The daily dose of the compound administered to each patient varied from 20 to 200 mg, the most favourable results being obtained with a dose of 40 to 60 mg.

Structure (SMILES)	patients with a clear favourable action on the depressive thymine [patients]	patients with improvement noted in less than a week [patients]
CCN(CC)CC=Cc1ccc(C2CCCCC2)c(Cl)c1 [933 CB, 3-chloro-4-cyclohexyl-1-(3-diethylamino-propen-1-yl)-benzene]	21	13

Same assay, conditions: depressed patients

Structure (SMILES)	rapidity of action (in words)
CCN(CC)CC=Cc1ccc(C2CCCCC2)c(Cl)c1 [933 CB, 3-chloro-4-cyclohexyl-1-(3-diethylamino-propen-1-yl)-benzene]	The action was rapid

System: adynamic and depressive states
Experiment: Clinical use in adynamic and depressive states
Format: in vivo
Details: 2 to 10 compressed tablets of 100 mg daily or 1 to 5 injectible ampoules of 100 mg
Method: The compounds of the invention have been successfully used clinically to treat adynamic and depressive states, such as melancholia, reactive depressions and manic-depressive psychosis.
The compounds of the present invention are preferably formulated for oral administration or for injection. The compounds of the invention are also suitable for rectal administration. For oral administration, compressed tablets, each containing from 20 to 500 mg of active ingredient are recommended and for injection, ampoules each containing from 10 to 500 mg of active ingredient are recommended.

Structure (SMILES)	results on administration (in words)
CCN(CC)CC=Cc1ccc(C2CCCCC2)c(Cl)c1 [933 CB, 3-chloro-4-cyclohexyl-1-(3-diethylamino-propen-1-yl)-benzene]	Good results were obtained
